Earlier results in patent US20070155727A1, “Amide inhibitors of leukotriene A4 hydrolase” (Schering Aktiengessellschaft, priority 2005, published 2007).

Legend:
[1] = molecular target: LTB4 receptor; conditions: read-out: Kd, additional lower affinity LTB4 receptors; neutrophils
[2] = molecular target: BLT1; conditions: human BLT1 and its mouse, rat and guinea pig orthologues
[3] = molecular target: T1, LTA4-h (Mus musculus, UniProt P24527); conditions: oral administration, mouse blood ex vivo
T1 construct: host or cells: mouse blood ex vivo after oral dosing
T1 sequence (P24527 1-611): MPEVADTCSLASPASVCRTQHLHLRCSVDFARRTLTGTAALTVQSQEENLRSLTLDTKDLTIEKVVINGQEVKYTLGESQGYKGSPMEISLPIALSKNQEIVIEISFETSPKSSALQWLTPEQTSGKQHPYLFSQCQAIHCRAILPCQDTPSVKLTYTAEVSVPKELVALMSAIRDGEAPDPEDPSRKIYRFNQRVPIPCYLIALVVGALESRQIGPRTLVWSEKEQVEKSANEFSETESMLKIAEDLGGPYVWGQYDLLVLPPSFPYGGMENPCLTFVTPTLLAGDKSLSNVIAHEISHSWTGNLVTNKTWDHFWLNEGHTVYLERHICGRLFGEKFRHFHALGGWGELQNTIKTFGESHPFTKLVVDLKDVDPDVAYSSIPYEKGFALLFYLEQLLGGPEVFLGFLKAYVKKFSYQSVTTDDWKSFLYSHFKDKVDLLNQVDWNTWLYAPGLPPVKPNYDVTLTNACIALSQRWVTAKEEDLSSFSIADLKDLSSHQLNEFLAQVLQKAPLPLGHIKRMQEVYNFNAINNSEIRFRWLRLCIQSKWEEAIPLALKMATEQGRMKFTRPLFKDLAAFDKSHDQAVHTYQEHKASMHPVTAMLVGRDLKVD

[4] = molecular target: T2, LTA4-h (Rattus norvegicus, UniProt P30349); conditions: oral administration, rat peritoneum in vivo
T2 construct: and in rat peritoneum in vivo; host or cells: rat peritoneum in vivo
T2 sequence (P30349 1-611): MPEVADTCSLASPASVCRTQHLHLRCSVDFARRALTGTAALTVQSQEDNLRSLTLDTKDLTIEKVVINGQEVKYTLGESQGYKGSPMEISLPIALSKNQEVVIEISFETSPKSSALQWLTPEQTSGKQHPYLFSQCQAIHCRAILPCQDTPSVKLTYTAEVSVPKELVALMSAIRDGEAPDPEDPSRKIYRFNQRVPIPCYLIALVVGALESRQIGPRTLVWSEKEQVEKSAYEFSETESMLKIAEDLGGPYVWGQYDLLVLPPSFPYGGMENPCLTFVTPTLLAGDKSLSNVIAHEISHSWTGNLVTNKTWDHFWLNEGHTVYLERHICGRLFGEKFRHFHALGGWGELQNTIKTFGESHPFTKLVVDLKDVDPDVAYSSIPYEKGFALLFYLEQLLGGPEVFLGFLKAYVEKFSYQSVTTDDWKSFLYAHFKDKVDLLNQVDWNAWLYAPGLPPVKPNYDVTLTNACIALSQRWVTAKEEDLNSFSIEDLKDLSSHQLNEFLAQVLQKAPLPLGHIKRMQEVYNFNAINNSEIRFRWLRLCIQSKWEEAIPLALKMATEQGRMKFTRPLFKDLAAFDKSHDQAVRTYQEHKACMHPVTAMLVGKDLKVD

[5] = test system: colitis; conditions: eight weeks of treatment, cotton top tamarins

Structure (SMILES) | Kd [1] | Kd [2] | inhibition of ionophore-induced LTB4 production [3] | inhibition of ionophore-induced LTB4 production [4] | colitis symptoms [5]
CCCCC/C=C\C[C@@H](O)/C=C/C=C/C=C\[C@@H](O)CCCC(=O)O [LTB4, Leukotriene B4] | > 60 nM | 0.1 to 0.7 nM |  |  | 
CN(CCCOc1ccc(Cc2ccccc2)cc1)CCC(=O)O.Cl [SC57461] |  |  | caused inhibition of ionophore-induced LTB4 production | caused inhibition of ionophore-induced LTB4 production | significantly improved colitis symptoms
